The supplement of paper PMC11208160
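Note: IS621 bridge recombinase in Escherichia coli cells against a fixed T5 target plasmid.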

Test: recombinant UMI read abundance after kanamycin selection (control-corrected) (log10(CPM+1)); higher = more efficient recombination; extreme values may be limits of the assay; sequences stand for … in AGTGCAGAGAAAATCGGCCAGTTTTCTCTGCCTGCAGTCCGCATGCCGTGGGACCCCTTGGGTTCTAACCTGTTGCCTAGATTTATGCAGCGGACTGCCTTTCTCCCAAAGTGATAAACCGG…AGGTTGGTTTCACT; site = the 11-nt donor
How it was run: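 Under IPTG (0.07 mM) plus kanamycin, or without selection, Escherichia coli carrying a UMI-tagged donor and donor-binding-loop pair library and a target plasmid for the IS621 bridge recombinase were plated in two replicates. Recombinant UMIs were PCR-amplified across the donor–target junction and sequenced. Counts were converted to CPM, averaged over replicates, scaled by control-derived factors and reported as log10(CPM+1).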
With “CGAGGACCATGGACCGGTTTTCCCGGTAATCCGTATTTGCG (site CGAGGACCTCT)” the “recombinant UMI read abundance (log10)” value was 0.00945.
With “CGAGGACCATGGACCGGTTTTCCCGGTAATCCGTATTTGGA (site CGAGGACCTAC)” the “recombinant UMI read abundance (log10)” value was 0.
For “CGAGGACCATGGACCGGTTTTCCCGGTAATCCGTATTTGGA (site CGAGGACCTCC)”, the “recombinant UMI read abundance (log10)” value was 0.0127.
With “CGAGGACCATGGACCGGTTTTCCCGGTAATCCGTATTTGGA (site CGAGGACCTGC)” the “recombinant UMI read abundance (log10)” value was 0.
With “CGAGGACCATGGACCGGTTTTCCCGGTAATCCGTATTTGGA (site CGAGGACCTTC)” the “recombinant UMI read abundance (log10)” value was 0.0145.
In the case of “CGAGGATCATGGACCGGTTTTCCCGGTAATCCGTATTTGGG (site CGAGGAACTCC)”, the “recombinant UMI read abundance (log10)” value is reported as 0.0163.
In the case of “CGAGGATCATGGACCGGTTTTCCCGGTAATCCGTATTTGGG (site CGAGGACCTCC)”, the “recombinant UMI read abundance (log10)” value is reported as 0.00347.
For “CGAGGATCATGGACCGGTTTTCCCGGTAATCCGTATTTGGG (site CGAGGAGCTCC)”, the “recombinant UMI read abundance (log10)” value was 0.
In the case of “CGAGGATCATGGACCGGTTTTCCCGGTAATCCGTATTTGGG (site CGAGGATCTCC)”, the “recombinant UMI read abundance (log10)” value is reported as 1.15.
With “CGAGTATCATGGACCGGTTTTCCCGGTAATCCGTATTTGAT (site CGAGTATCTAT)” the “recombinant UMI read abundance (log10)” value was 2.89.
With “CGAGTATCATGGACCGGTTTTCCCGGTAATCCGTATTTGAT (site CTAGTATCTGT)” the “recombinant UMI read abundance (log10)” value was 0.
In the case of “CGATAATCATGGACCGGTTTTCCCGGTAATCCGTATTTGCG (site CGATAATCTCG)”, the “recombinant UMI read abundance (log10)” value is reported as 3.34.
In the case of “CGATAATCATGGACCGGTTTTCCCGGTAATCCGTATTTGCG (site CGATCATCTAG)”, the “recombinant UMI read abundance (log10)” value is reported as 0.
In the case of “CGATCAACATGGACCGGTTTTCCCGGTAATCCGTATTTGTT (site CGATCAACTAA)”, the “recombinant UMI read abundance (log10)” value is reported as 0.0564.
With “CGATCAACATGGACCGGTTTTCCCGGTAATCCGTATTTGTT (site CGATCCACTAA)” the “recombinant UMI read abundance (log10)” value was 0.0118.
With “CGATCAACATGGACCGGTTTTCCCGGTAATCCGTATTTGTT (site CGATCGACTAA)” the “recombinant UMI read abundance (log10)” value was 0.00905.
For “CGATCAACATGGACCGGTTTTCCCGGTAATCCGTATTTGTT (site CGATCTACTAA)”, the “recombinant UMI read abundance (log10)” value was 0.00984.
With “CGATCACCATGGACCGGTTTTCCCGGTAATCCGTATTTGAT (site CGATCACCTAT)” the “recombinant UMI read abundance (log10)” value was 0.00371.
For “CGATCACCATGGACCGGTTTTCCCGGTAATCCGTATTTGAT (site CGATCATCTAG)”, the “recombinant UMI read abundance (log10)” value was 0.
With “CGATCATCATGGACCGGTTTTCCCGGTAATCCGTATTTGCT (site ACATCATCTAG)” the “recombinant UMI read abundance (log10)” value was 1.28.
With “CGATCATCATGGACCGGTTTTCCCGGTAATCCGTATTTGCT (site AGAGCATCTAG)” the “recombinant UMI read abundance (log10)” value was 0.
For “CGATCATCATGGACCGGTTTTCCCGGTAATCCGTATTTGCT (site AGATCAGCTAG)”, the “recombinant UMI read abundance (log10)” value was 0.00274.
With “CGATCATCATGGACCGGTTTTCCCGGTAATCCGTATTTGCT (site AGATCATCTAA)” the “recombinant UMI read abundance (log10)” value was 0.00548.
With “CGATCATCATGGACCGGTTTTCCCGGTAATCCGTATTTGCT (site AGATCATCTAG)” the “recombinant UMI read abundance (log10)” value was 2.17.
For “CGATCATCATGGACCGGTTTTCCCGGTAATCCGTATTTGCT (site AGATCATCTTG)”, the “recombinant UMI read abundance (log10)” value was 0.
In the case of “CGATCATCATGGACCGGTTTTCCCGGTAATCCGTATTTGCT (site AGATCTTCTAG)”, the “recombinant UMI read abundance (log10)” value is reported as 0.
In the case of “CGATCATCATGGACCGGTTTTCCCGGTAATCCGTATTTGCT (site AGATTATCTAG)”, the “recombinant UMI read abundance (log10)” value is reported as 0.017.
With “CGATCATCATGGACCGGTTTTCCCGGTAATCCGTATTTGCT (site AGGTCATCTAG)” the “recombinant UMI read abundance (log10)” value was 0.
In the case of “CGATCATCATGGACCGGTTTTCCCGGTAATCCGTATTTGCT (site CAAACATCTAG)”, the “recombinant UMI read abundance (log10)” value is reported as 1.6.
In the case of “CGATCATCATGGACCGGTTTTCCCGGTAATCCGTATTTGCT (site CAATCACCTAG)”, the “recombinant UMI read abundance (log10)” value is reported as 0.
In the case of “CGATCATCATGGACCGGTTTTCCCGGTAATCCGTATTTGCT (site CAATCATCTAG)”, the “recombinant UMI read abundance (log10)” value is reported as 1.62.
With “CGATCATCATGGACCGGTTTTCCCGGTAATCCGTATTTGCT (site CAATCATCTAT)” the “recombinant UMI read abundance (log10)” value was 0.
With “CGATCATCATGGACCGGTTTTCCCGGTAATCCGTATTTGCT (site CAATCATCTGG)” the “recombinant UMI read abundance (log10)” value was 0.
In the case of “CGATCATCATGGACCGGTTTTCCCGGTAATCCGTATTTGCT (site CAATCGTCTAG)”, the “recombinant UMI read abundance (log10)” value is reported as 0.00456.
For “CGATCATCATGGACCGGTTTTCCCGGTAATCCGTATTTGCT (site CAATGATCTAG)”, the “recombinant UMI read abundance (log10)” value was 0.
In the case of “CGATCATCATGGACCGGTTTTCCCGGTAATCCGTATTTGCT (site CATTCATCTAG)”, the “recombinant UMI read abundance (log10)” value is reported as 1.44.
In the case of “CGATCATCATGGACCGGTTTTCCCGGTAATCCGTATTTGCT (site CCAGCATCTAG)”, the “recombinant UMI read abundance (log10)” value is reported as 0.0355.
For “CGATCATCATGGACCGGTTTTCCCGGTAATCCGTATTTGCT (site CCATCAGCTAG)”, the “recombinant UMI read abundance (log10)” value was 0.
For “CGATCATCATGGACCGGTTTTCCCGGTAATCCGTATTTGCT (site CCATCATCTAA)”, the “recombinant UMI read abundance (log10)” value was 0.
For “CGATCATCATGGACCGGTTTTCCCGGTAATCCGTATTTGCT (site CCATCATCTAG)”, the “recombinant UMI read abundance (log10)” value was 0.987.
In the case of “CGATCATCATGGACCGGTTTTCCCGGTAATCCGTATTTGCT (site CCATCATCTTG)”, the “recombinant UMI read abundance (log10)” value is reported as 0.
For “CGATCATCATGGACCGGTTTTCCCGGTAATCCGTATTTGCT (site CCATCTTCTAG)”, the “recombinant UMI read abundance (log10)” value was 0.
For “CGATCATCATGGACCGGTTTTCCCGGTAATCCGTATTTGCT (site CCATTATCTAG)”, the “recombinant UMI read abundance (log10)” value was 0.
In the case of “CGATCATCATGGACCGGTTTTCCCGGTAATCCGTATTTGCT (site CCGTCATCTAG)”, the “recombinant UMI read abundance (log10)” value is reported as 0.747.
With “CGATCATCATGGACCGGTTTTCCCGGTAATCCGTATTTGCT (site CGAACACCTAG)” the “recombinant UMI read abundance (log10)” value was 0.
In the case of “CGATCATCATGGACCGGTTTTCCCGGTAATCCGTATTTGCT (site CGAACATCTAG)”, the “recombinant UMI read abundance (log10)” value is reported as 0.278.
For “CGATCATCATGGACCGGTTTTCCCGGTAATCCGTATTTGCT (site CGAACATCTAT)”, the “recombinant UMI read abundance (log10)” value was 0.00401.
For “CGATCATCATGGACCGGTTTTCCCGGTAATCCGTATTTGCT (site CGAACATCTGG)”, the “recombinant UMI read abundance (log10)” value was 0.
For “CGATCATCATGGACCGGTTTTCCCGGTAATCCGTATTTGCT (site CGAACGTCTAG)”, the “recombinant UMI read abundance (log10)” value was 0.00334.
With “CGATCATCATGGACCGGTTTTCCCGGTAATCCGTATTTGCT (site CGAAGATCTAG)” the “recombinant UMI read abundance (log10)” value was 0.
In the case of “CGATCATCATGGACCGGTTTTCCCGGTAATCCGTATTTGCT (site CGACAATCTAG)”, the “recombinant UMI read abundance (log10)” value is reported as 0.437.
With “CGATCATCATGGACCGGTTTTCCCGGTAATCCGTATTTGCT (site CGACCAACTAG)” the “recombinant UMI read abundance (log10)” value was 0.00386.
In the case of “CGATCATCATGGACCGGTTTTCCCGGTAATCCGTATTTGCT (site CGACCATCTAC)”, the “recombinant UMI read abundance (log10)” value is reported as 0.
For “CGATCATCATGGACCGGTTTTCCCGGTAATCCGTATTTGCT (site CGACCATCTAG)”, the “recombinant UMI read abundance (log10)” value was 2.55.
For “CGATCATCATGGACCGGTTTTCCCGGTAATCCGTATTTGCT (site CGACCATCTCG)”, the “recombinant UMI read abundance (log10)” value was 0.019.
With “CGATCATCATGGACCGGTTTTCCCGGTAATCCGTATTTGCT (site CGACCCTCTAG)” the “recombinant UMI read abundance (log10)” value was 0.00441.
In the case of “CGATCATCATGGACCGGTTTTCCCGGTAATCCGTATTTGCT (site CGAGCAGCTAG)”, the “recombinant UMI read abundance (log10)” value is reported as 0.
In the case of “CGATCATCATGGACCGGTTTTCCCGGTAATCCGTATTTGCT (site CGAGCATCTAA)”, the “recombinant UMI read abundance (log10)” value is reported as 0.0187.
In the case of “CGATCATCATGGACCGGTTTTCCCGGTAATCCGTATTTGCT (site CGAGCATCTAG)”, the “recombinant UMI read abundance (log10)” value is reported as 0.
For “CGATCATCATGGACCGGTTTTCCCGGTAATCCGTATTTGCT (site CGAGCATCTTG)”, the “recombinant UMI read abundance (log10)” value was 0.
For “CGATCATCATGGACCGGTTTTCCCGGTAATCCGTATTTGCT (site CGAGCTTCTAG)”, the “recombinant UMI read abundance (log10)” value was 0.
With “CGATCATCATGGACCGGTTTTCCCGGTAATCCGTATTTGCT (site CGAGTATCTAG)” the “recombinant UMI read abundance (log10)” value was 0.
With “CGATCATCATGGACCGGTTTTCCCGGTAATCCGTATTTGCT (site CGATAAACTAG)” the “recombinant UMI read abundance (log10)” value was 0.0203.
For “CGATCATCATGGACCGGTTTTCCCGGTAATCCGTATTTGCT (site CGATAATCTAC)”, the “recombinant UMI read abundance (log10)” value was 0.
With “CGATCATCATGGACCGGTTTTCCCGGTAATCCGTATTTGCT (site CGATAATCTAG)” the “recombinant UMI read abundance (log10)” value was 0.558.
With “CGATCATCATGGACCGGTTTTCCCGGTAATCCGTATTTGCT (site CGATAATCTCG)” the “recombinant UMI read abundance (log10)” value was 0.
In the case of “CGATCATCATGGACCGGTTTTCCCGGTAATCCGTATTTGCT (site CGATACTCTAG)”, the “recombinant UMI read abundance (log10)” value is reported as 0.
For “CGATCATCATGGACCGGTTTTCCCGGTAATCCGTATTTGCT (site CGATCAACTAC)”, the “recombinant UMI read abundance (log10)” value was 0.0107.
With “CGATCATCATGGACCGGTTTTCCCGGTAATCCGTATTTGCT (site CGATCAACTAG)” the “recombinant UMI read abundance (log10)” value was 0.
For “CGATCATCATGGACCGGTTTTCCCGGTAATCCGTATTTGCT (site CGATCAACTCG)”, the “recombinant UMI read abundance (log10)” value was 0.
With “CGATCATCATGGACCGGTTTTCCCGGTAATCCGTATTTGCT (site CGATCACCTAG)” the “recombinant UMI read abundance (log10)” value was 0.
In the case of “CGATCATCATGGACCGGTTTTCCCGGTAATCCGTATTTGCT (site CGATCACCTAT)”, the “recombinant UMI read abundance (log10)” value is reported as 0.0275.
For “CGATCATCATGGACCGGTTTTCCCGGTAATCCGTATTTGCT (site CGATCACCTGG)”, the “recombinant UMI read abundance (log10)” value was 0.009.
With “CGATCATCATGGACCGGTTTTCCCGGTAATCCGTATTTGCT (site CGATCAGCTAA)” the “recombinant UMI read abundance (log10)” value was 0.00801.
With “CGATCATCATGGACCGGTTTTCCCGGTAATCCGTATTTGCT (site CGATCAGCTAG)” the “recombinant UMI read abundance (log10)” value was 0.
